Data published in ChEMBL document CHEMBL1143806, “Synthesis and biological evaluation of the suberoylanilide hydroxamic acid (SAHA) beta-glucuronide and beta-galactoside for application in selective prodrug chemotherapy” (Bioorg Med Chem Lett, 2007).
Active and inactive are the calls of the source. The rule behind the calls is not given here.

Legend:
NCI-H661 = test: Antiproliferative activity against human H661 cells at 1 to 25 uM after 48 hrs; assay type: functional, cell-based
[1] = Stability in presence of 100 U/mL Escherichia coli beta-glucuronidase assessed as SAHA production after 7 mins; assay type: ADME
[2] = Stability in presence of 200 to 1000 U/mL bovine liver beta-glucuronisase assessed as SAHA production at 100 ug/mL; assay type: ADME; settings: cattle
[3] = Stability in presence of 100 U/mL Escherichia coli beta-glucuronidase assessed as SAHA production after 30 mins; assay type: ADME; settings: 0.5 h

Structure (SMILES) | Activity (NCI-H661) | Stability [1] | Stability [2] | Stability [3]
O=C(CCCCCCC(=O)Nc1ccccc1)NO[C@@H]1O[C@H](C(=O)O)[C@@H](O)[C@H](O)[C@H]1O | inactive | Stable | Stable | Stable
O=C(CCCCCCC(=O)Nc1ccccc1)NO[C@@H]1O[C@H](CO)[C@H](O)[C@H](O)[C@H]1O | inactive | – | – | –
